Data reported in US10450593B2, “Type II fatty acid synthesis enzymes in reverse β-oxidation” (William Marsh Rice University, priority 2014, dated 2019).
Where two headings read alike, the source gives them in different places.

Columns and labels:
[1] = molecular target: T1, FabI (Escherichia coli, UniProt P0AEK4); experiment: Inhibition of FabI crotonyl-CoA reduction activity by CoA thioesters; assay type: biochemical, E. coli; conditions: for inhibitory effect on FabI activity: CoA thioester at 20 or 200 μM
T1 sequence (P0AEK4 1-262): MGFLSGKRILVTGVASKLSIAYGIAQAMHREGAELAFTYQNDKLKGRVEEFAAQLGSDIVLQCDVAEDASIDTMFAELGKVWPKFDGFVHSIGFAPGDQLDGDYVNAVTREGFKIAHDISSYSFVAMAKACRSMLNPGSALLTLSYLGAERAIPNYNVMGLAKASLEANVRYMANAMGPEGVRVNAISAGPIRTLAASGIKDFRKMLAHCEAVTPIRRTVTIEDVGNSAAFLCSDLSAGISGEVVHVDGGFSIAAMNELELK
Description: FIG. 3. Characterization of crotonyl-CoA reduction to butyryl-CoA by FabI. FIG. 3A. Mass spectrum analysis of FabI reduction of crotonyl-CoA to butyryl-CoA. (i) Controls of crotonyl-CoA (836.3 m/z—gray) and butyryl-CoA (838.3 m/z—black). (ii) Reaction mixture without FabI. (iii) Reaction mixture with FabI. FIG. 3B. pH activity profile of FabI with crotonyl-CoA and NADH relative to pH 7.5 (1.0). FIG. 3C. Inhibition profile of crotonyl-CoA reduction activity for FabI with the indicated CoA thioesters at either 20 or 200 μM relative to activity in absence of inhibitor (100%).
(§1) For measurement of enzymatic activities from fermentation samples, cells were disrupted as previously reported (Dellomonaco, Clomburg, Miller, & Gonzalez, 2011). The HIS Tagged FabI protein was expressed from pCA24N-FabI from the ASKA collection (Kitagawa et al., 2005) in BL21(DE3) cells (NEW ENGLAND BIOLABS™) induced at OD600≈0.4 with 0.1 mM IPTG and shaken O/N at Room Temperature. FabI protein was harvested and purified as previously reported using Talon Metal Affinity Resin (CLONTECH LABORATORIES™) (Clomburg et al., 2012).
(§2) Thiolase activity (Wiesenborn, Rudolph, & Papoutsakis, 1988) and β-hydroxybutyryl-CoA dehydrogenase activity (Bond-Watts, Bellerose, & Chang, 2011a) were monitored accordingly as previously described (Clomburg et al., 2012). Trans-enoyl-CoA reductase activity for egTER, FabI, bsFabL, efFabK and vcFabV were monitored by loss of NADH (Bond-Watts et al., 2011a; Clomburg et al., 2012). Acyl-CoA dehydrogenase activity was monitored by measuring the reduction of Methyl-Thiazolyl Blue (MTT) coupled to the oxidation of butyryl-CoA (O'Brien & Frerman, 1977) in cellular extracts disrupted as above with the addition of 5 μM flavin adenine dinucleotide (FAD).
To understand the potential of utilizing FabI for BOX-R, we examined the effect of key CoA thioester intermediates of the BOX-R as well as a broad range of acyl-CoAs on FabI activity […].

[2] = molecular target: T1, FabI; conditions: substrate of FabI, Bergler 1994; cited from earlier work
[3] = molecular target: T1, FabI
[4] = substrate: C/C=C/C(=O)SCCNC(=O)CCNC(=O)[C@H](O)C(C)(C)COP(=O)(O)OP(=O)(O)OC[C@H]1O[C@@H](n2cnc3c(N)ncnc32)[C@H](O)[C@@H]1OP(=O)(O)O; experiment: Kinetic parameters of purified N-terminal His-tagged FabI with crotonyl-CoA and NADH; assay type: biochemical, E. coli; conditions: other: substrate of purified FabI, NADH
Method: as §1, §2
N-terminal His-tagged FabI was purified from an ASKA collection vector (Kitagawa et al., 2005) expressed in the strain BL21(DE3). […] This change in kcat increases the expected rate of crotonyl-CoA reduction by FabI to a value between 1.02×10^−7M s^−1 and 7.86×10^−11 M s^−1, which is in agreement with the rate observed in our cultures. To verify that FabI is utilizing NADH to convert crotonyl-CoA to butyryl-CoA, the reaction was monitored via HPLC-MS, which confirmed that FabI converts crotonyl-CoA almost completely to butyryl-CoA (FIG. 3a).

Question: Which “inhibitory effect on FabI activity” value [1] does the source give for `CC(O)CC(=O)SCCNC(=O)CCNC(=O)[C@H](O)C(C)(C)COP(=O)(O)OP(=O)(O)OC[C@H]1O[C@@H](n2cnc3c(N)ncnc32)[C@H](O)[C@@H]1OP(=O)(O)O` (stereo partly shown) [3-hydroxy-butyryl-CoA] here?
Answer: minimal inhibitory effects

Question: With `CC(=O)CC(=O)SCCNC(=O)CCNC(=O)[C@H](O)C(C)(C)COP(=O)(O)OP(=O)(O)OC[C@H]1O[C@@H](n2cnc3c(N)ncnc32)[C@H](O)[C@@H]1OP(=O)(O)O` [acetoacetyl-CoA] as the molecule, how does the “inhibitory effect on FabI activity” value [1] read?
Answer: minimal inhibitory effects

Question: For `C/C=C/C(=O)SCCNC(=O)CCNC(=O)[C@H](O)C(C)(C)COP(=O)(O)OP(=O)(O)OC[C@H]1O[C@@H](n2cnc3c(N)ncnc32)[C@H](O)[C@@H]1OP(=O)(O)O` [crotonyl-CoA], which reported kcat [2] is on record?
Answer: 0.23 s⁻¹

Question: For `CCCCCCCCCC(=O)SCCNC(=O)CCNC(=O)C(O)C(C)(C)COP(=O)(O)OP(=O)(O)OC[C@H]1O[C@@H](n2cnc3c(N)ncnc32)[C@H](O)[C@@H]1OP(=O)(O)O` (stereo partly shown) [decaonyl-CoA], which Ki ([3]; literature, Helmut Bergler 1996; read-out: Ki towards FabI; cited from earlier work) is on record?
Answer: ~900 µM

Question: With `CCCCCCCCCCCCCC(=O)SCCNC(=O)CCNC(=O)[C@H](O)C(C)(C)COP(=O)(O)OP(=O)(O)OC[C@H]1O[C@@H](n2cnc3c(N)ncnc32)[C@H](O)[C@@H]1OP(=O)(O)O` [myristoyl-CoA] as the molecule, how does the “percent inhibition of FabI crotonyl-CoA reduction activity” value ([1]; CoA thioester at 200 μM) read?
Answer: highest percent inhibition

Question: For `CCCCCCCCCCCCCCCC(=O)SCCNC(=O)CCNC(=O)[C@H](O)C(C)(C)COP(=O)(O)OP(=O)(O)OC[C@H]1O[C@@H](n2cnc3c(N)ncnc32)[C@H](O)[C@@H]1OP(=O)(O)O` [palmitoyl-CoA], which inhibition at 20 µM ([1]; read-out: inhibition of FabI crotonyl-CoA reduction activity) is on record?
Answer: ~50%

Question: And the Ki ([3]; read-out: Ki towards FabI; literature, Helmut Bergler 1996; cited from earlier work)?
Answer: 20 µM

B1: FabI (Escherichia coli K-12) (protein)
chain: MGFLSGKRILVTGVASKLSIAYGIAQAMHREGAELAFTYQNDKLKGRVEEFAAQLGSDIVLQCDVAEDASIDTMFAELGKVWPKFDGFVHSIGFAPGDQLDGDYVNAVTREGFKIAHDISSYSFVAMAKACRSMLNPGSALLTLSYLGAERAIPNYNVMGLAKASLEANVRYMANAMGPEGVRVNAISAGPIRTLAASGIKDFRKMLAHCEAVTPIRRTVTIEDVGNSAAFLCSDLSAGISGEVVHVDGGFSIAAMNELELK
Question: For B1, which Km [4] is on record?
Answer: 4.6 ± 0.6 mM

Question: And the kcat [4]?
Answer: 5.3 ± 0.6 s⁻¹

Question: And the kcat/Km [4]?
Answer: 1150 M⁻¹ s⁻¹
